Numbered stars: 1 amine (or outer) side, 2 acyl side, 3 side chain; on linkers, the order of the positions; unused ones are H or OH. Bridge positions count the residues as written; N and C are the ends. Square brackets hold non-standard residues; d marks the D form. Peptide text beside a SMILES is read from it. ξ: configuration not given here. ξαMeNle(6-ylidene) = CC(CCCC=[*:3])(N[*:1])C(=O)[*:2]; Nle = CCCC[C@H](N)C(=O)O; Aib = CC(C)(N)C(=O)O
Key:
human serum proteins = assay: Apparent affinity to human serum proteins (Kd*) by EC50 shift analysis; assay type: in vitro ADME; conditions: nonlinear regression of EC50 shift with serum, n = 1, P = 700 μM for 100% serum
Text: The measurement of apparent Kd values for serum protein by EC50 shift analysis provides a simple and rapid means of quantifying the propensity of experimental compounds to bind HSA and other serum proteins. A linear relationship exists between the apparent EC50 in the presence of serum protein (EC′50) and the amount of serum protein added to an in vitro assay. This relationship is defined by the binding affinity of the compound for serum proteins, expressed as Kd*. This term is an experimentally determined, apparent dissociation constant that may result from the cumulative effects of multiple, experimentally indistinguishable, binding events. The form of this relationship is presented here in Eq. 0.3, and its derivation can be found in Copeland et al, Biorg. Med. Chem. Lett. 2004, 14:2309-2312. [formula] A significant proportion of serum protein binding can be ascribed to drug interactions with HSA, due to the very high concentration of this protein in serum (35-50 g/L or 530-758 μM). To calculate the Kd value for these compounds we have assumed that the shift in EC50 upon protein addition can be ascribed fully to the HSA present in the added serum, where P is 700 μM for 100% serum, P is 70 μM for 10% serum, etc. We further made the simplifying assumption that all of the compounds bind HSA with a 1:1 stoichiometry, so that the term n in Eq. (0.3) is fixed at unity. With these parameters in place we calculated the Kd* value for each stapled peptide from the changes in EC50 values with increasing serum (and serum protein) concentrations by nonlinear regression analysis of Eq. 0.3 using Mathematica 4.1 (Wolfram Research, Inc., www.wolfram.com). EC′50 values in whole blood are estimated by setting P in Eq. 0.3 to 700 μM [HSA].

[1] = Estimated free fraction in blood, calculated from Kd* with [HSA]total 700 μM; assay type: in vitro ADME; conditions: human; [HSA]total set at 700 μM; read-out: Free Fraction est. in blood
Description: The free fraction in blood is estimated per the following equation, as derived by Trainor, Expert Opin. Drug Disc., 2007, 2(1):51-64, where [HSA]total is set at 700 μM. [formula]

Jurkat cell line = assay type: cell-based; conditions: for EC50: 24 h; for efficacy in serum-free media and in the presence of serum: statement in words
Description: Jurkat cell line (Clone E6-1, ATCC catalog #TIB-152) is grown in specific serum-supplemented media (RPMI-1640, Invitrogen catalog #22400) as recommended by ATCC. A day prior to the initiation of the study, cells are split at optimal cell density (2×10^5-5×10^5 cells/ml) to assure actively dividing cells. The next day, cells are washed twice in serum-free Opti-MEM media (Invitrogen, Catalog #51985) and cells are then plated at optimal cell density (10,000 cells/well) in 50 μl Opti-MEM media or Opti-MEM supplemented with 2% or 10% human serum (Bioreclamation, catalog #HMSRM) in 96-well white tissue culture plate (Nunc, catalog #136102).
For serum free experiment, crosslinked polypeptides are diluted from 2 mM stocks (100% DMSO) in sterile water to prepare 400 μM working solutions. The crosslinked polypeptides and controls are diluted 10-fold first and then serially two-fold diluted in Opti-MEM in dosing plates to provide concentrations of between 1.2 and 40 μM. 50 μl of each dilution is then added to the appropriate wells of the test plate to achieve final concentrations of the polypeptides equal to between 0.6 to 20 μM. For studies using Opti-MEM supplemented with human serum (Bioreclamation, catalog #HMSRM), crosslinked polypeptides are diluted from 10 mM stocks (100% DMSO) in sterile water to prepare 2 mM working solutions. The crosslinked polypeptides and controls are diluted 10-fold first and then serially two-fold diluted in Opti-MEM in the presence of 2% or 10% of human serum to provide concentrations of the polypeptides equal to between 6.25 to 200 μM in dosing plates. 50 μl of each dilution is then added to the appropriate wells of the test plate to achieve final concentrations of the polypeptides equal to between 3.125 to 100 μM. Controls included wells without polypeptides containing the same concentration of DMSO as the wells containing the macrocycles, wells containing 0.1% Triton X-100 and wells containing no cells. Plates are incubated for 24 hours at 37° C. in humidified 5% CO2 atmosphere.
At the end of the incubation period, CellTiter-Glo assay is performed according to manufacturer's instructions (Promega, catalog #G7573) and luminescence is measured using Synergy HT Plate reader (BioTek). Luminescence correlates with viability. A reduction in viability reflects the ability of the test compounds to induce programmed cell death via BAX and BAK.

SMILES | Kd (human serum proteins) [nM] | fraction unbound [1] | EC50 (Jurkat cell line) [nM] | efficacy in serum-free media and in the presence of serum (Jurkat cell line)
CCCC[C@H](NC(=O)C1(C)CCCC=CCCCC(C)(NC(=O)[C@H](C)NC(=O)[C@H](CC(C)C)NC(=O)[C@H](Cc2c[nH]cn2)NC(=O)[C@H](CCCNC(=N)N)NC(=O)[C@H](C)NC(=O)[C@@H](NC(=O)[C@H](CC(N)=O)NC(=O)[C@H](CCCNC(=N)N)NC(=O)[C@@H](NC(=O)[C@@H](NC(=O)[C@H](CC(=O)O)NC(C)=O)[C@@H](C)CC)[C@@H](C)CC)[C@@H](C)CC)C(=O)N[C@@H](C(C)C)C(=O)NCC(=O)N[C@@H](CC(=O)O)C(=O)N1)C(=O)N[C@@H](CC(=O)O)C(=O)N[C@@H](CCCNC(=N)N)C(=O)N[C@@H](CO)C(=O)N[C@H](C(N)=O)[C@@H](C)CC (some centres unmarked) [Compound 1, Ac-DIIRNIARHLA$VGD$NleDRSI-NH2] (Ac-DIIRNIARHLA[ξαMeNle(6-ylidene)]VGD[ξαMeNle(6-ylidene)][Nle]DRSI-NH2; staple 12-16) | < 100 | < 0.001 | 1200 | high efficacy in serum-free media, which is substantially reduced in the presence of serum
CCCC[C@H](NC(=O)C1(C)CCCC=CCCCC(C)(NC(=O)[C@H](C)NC(=O)[C@H](CC(C)C)NC(=O)[C@H](Cc2c[nH]cn2)NC(=O)[C@H](CCCNC(=N)N)NC(=O)[C@H](C)NC(=O)[C@@H](NC(=O)[C@H](CC(N)=O)NC(=O)[C@H](CCCNC(=N)N)NC(=O)[C@H](C)NC(=O)[C@H](C)NC(=O)[C@H](CC(=O)O)NC(C)=O)[C@@H](C)CC)C(=O)N[C@@H](C(C)C)C(=O)NC(C)(C)C(=O)N[C@@H](CC(=O)O)C(=O)N1)C(=O)N[C@@H](C)C(=O)N[C@@H](CCCNC(=N)N)C(=O)N[C@@H](CO)C(=O)N[C@H](C(N)=O)[C@@H](C)CC (some centres unmarked) [Compound 2, Ac-DAARNIARHLA$VAibD$NleARSI-NH2] (Ac-DAARNIARHLA[ξαMeNle(6-ylidene)]V[Aib]D[ξαMeNle(6-ylidene)][Nle]ARSI-NH2; staple 12-16) | < 100 | < 0.001 | 1600 | 
CCCC[C@H](NC(=O)C1(C)CCCC=CCCCC(C)(NC(=O)[C@H](C)NC(=O)[C@H](CC(C)C)NC(=O)[C@H](Cc2c[nH]cn2)NC(=O)[C@H](CCCNC(=N)N)NC(=O)[C@H](C)NC(=O)[C@@H](NC(=O)[C@H](CC(N)=O)NC(=O)[C@H](CCCNC(=N)N)NC(=O)[C@H](C)NC(=O)[C@@H](NC(=O)[C@H](CC(=O)O)NC(C)=O)[C@@H](C)CC)[C@@H](C)CC)C(=O)N[C@@H](C(C)C)C(=O)NC(C)(C)C(=O)N[C@@H](CC(=O)O)C(=O)N1)C(=O)N[C@@H](C)C(=O)N[C@@H](CCCNC(=N)N)C(=O)N[C@@H](CO)C(=O)N[C@H](C(N)=O)[C@@H](C)CC (some centres unmarked) [Compound 3, Ac-DIARNIARHLA$VAibD$NleARSI-NH2] (Ac-DIARNIARHLA[ξαMeNle(6-ylidene)]V[Aib]D[ξαMeNle(6-ylidene)][Nle]ARSI-NH2; staple 12-16) | < 100 | < 0.001 | 1200 | 
CC[C@H](C)[C@H](NC(C)=O)C(=O)N[C@@H](Cc1c[nH]c2ccccc12)C(=O)N[C@H](C(=O)N[C@@H](C)C(=O)N[C@@H](CCC(N)=O)C(=O)N[C@@H](CCC(=O)O)C(=O)N[C@@H](CC(C)C)C(=O)N[C@@H](CCCNC(=N)N)C(=O)NC1(C)CCCC=CCCCC(C)(C(=O)N[C@@H](Cc2ccccc2)C(=O)N[C@@H](CC(N)=O)C(=O)N[C@@H](C)C(=O)N[C@@H](Cc2ccc(O)cc2)C(=O)N[C@@H](Cc2ccc(O)cc2)C(=O)N[C@@H](C)C(=O)N[C@@H](CCCNC(=N)N)C(=O)N[C@@H](CCCNC(=N)N)C(N)=O)NC(=O)[C@H](CC(=O)O)NC(=O)CNC(=O)[C@H]([C@@H](C)CC)NC1=O)[C@@H](C)CC (some centres unmarked) [Compound 10, Ac-IWIAQELR$IGD$FNAYYARR-NH2] | < 100 | < 0.001 | 1300 | high efficacy in serum-free media, which is substantially reduced in the presence of serum
CCCC[C@H](NC(=O)C1(C)CCCC=CCCCC(C)(NC(=O)[C@H](C)NC(=O)[C@H](CC(C)C)NC(=O)[C@H](Cc2c[nH]cn2)NC(=O)[C@H](CCCNC(=N)N)NC(=O)[C@H](C)NC(=O)[C@@H](NC(=O)[C@H](CC(N)=O)NC(=O)[C@H](CCCNC(=N)N)NC(=O)[C@@H](NC(=O)[C@H](C)NC(=O)[C@H](CC(=O)O)NC(C)=O)[C@@H](C)CC)[C@@H](C)CC)C(=O)N[C@@H](C(C)C)C(=O)NC(C)(C)C(=O)N[C@@H](CC(=O)O)C(=O)N1)C(=O)N[C@@H](C)C(=O)N[C@@H](CCCNC(=N)N)C(=O)N[C@@H](CO)C(=O)N[C@H](C(N)=O)[C@@H](C)CC (some centres unmarked) [Compound 4, Ac-DAIRNIARHLA$VAibD$NleARSI-NH2] (Ac-DAIRNIARHLA[ξαMeNle(6-ylidene)]V[Aib]D[ξαMeNle(6-ylidene)][Nle]ARSI-NH2; staple 12-16) | < 100 | < 0.001 | 1000 | 

The next lines start with results.

Kd (human serum proteins) [nM] | fraction unbound [1] | EC50 (Jurkat cell line) [nM] | SMILES | efficacy in serum-free media and in the presence of serum (Jurkat cell line)
3800 | 0.0063 | 1500 | CC[C@H](C)[C@H](NC(=O)[C@H](Cc1c[nH]c2ccccc12)NC(=O)[C@H](CCCNC(=N)N)NC(C)=O)C(=O)N[C@@H](C)C(=O)N[C@@H](CCC(N)=O)C(=O)N[C@@H](CCC(N)=O)C(=O)N[C@@H](CC(C)C)C(=O)N[C@@H](CCCNC(=N)N)C(=O)NC1(C)CCCC=CCCCC(C)(C(=O)N[C@@H](Cc2ccccc2)C(=O)N[C@@H](CC(N)=O)C(=O)N[C@@H](C)C(=O)N[C@@H](Cc2ccc(O)cc2)C(=O)N[C@@H](Cc2ccc(O)cc2)C(=O)N[C@@H](C)C(=O)N[C@@H](CCCNC(=N)N)C(=O)N[C@@H](CCCNC(=N)N)C(N)=O)NC(=O)[C@H](CC(=O)O)NC(=O)CNC(=O)[C@H]([C@@H](C)CC)NC1=O (some centres unmarked) [Compound 13, Ac-RWIAQQLR$IGD$FNAYYARR-NH2] | 
3500 | 0.0058 | 500 | CC[C@H](C)[C@H](NC(C)=O)C(=O)N[C@@H](Cc1c[nH]c2ccccc12)C(=O)N[C@H](C(=O)N[C@@H](C)C(=O)N[C@@H](CCC(N)=O)C(=O)N[C@@H](C)C(=O)N[C@@H](CC(C)C)C(=O)N[C@@H](CCCNC(=N)N)C(=O)NC1(C)CCCC=CCCCC(C)(C(=O)N[C@@H](Cc2ccccc2)C(=O)N[C@@H](CC(N)=O)C(=O)N[C@@H](C)C(=O)N[C@@H](Cc2ccc(O)cc2)C(=O)N[C@@H](Cc2ccc(O)cc2)C(=O)N[C@@H](C)C(=O)N[C@@H](CCCNC(=N)N)C(=O)N[C@@H](CCCNC(=N)N)C(N)=O)NC(=O)[C@H](CC(N)=O)NC(=O)CNC(=O)[C@H]([C@@H](C)CC)NC1=O)[C@@H](C)CC (some centres unmarked) [Compound 16, Ac-IWIAQALR$IGN$FNAYYARR-NH2] | 
5100 | 0.0084 | 900 | CC[C@H](C)[C@H](NC(=O)[C@H](Cc1c[nH]c2ccccc12)NC(=O)[C@H](CCCNC(=N)N)NC(C)=O)C(=O)N[C@@H](C)C(=O)N[C@@H](CCC(N)=O)C(=O)N[C@@H](C)C(=O)N[C@@H](CC(C)C)C(=O)N[C@@H](CCCNC(=N)N)C(=O)NC1(C)CCCC=CCCCC(C)(C(=O)N[C@@H](Cc2ccccc2)C(=O)N[C@@H](CC(N)=O)C(=O)N[C@@H](C)C(=O)N[C@@H](Cc2ccc(O)cc2)C(=O)N[C@@H](Cc2ccc(O)cc2)C(=O)N[C@@H](C)C(=O)N[C@@H](CCCNC(=N)N)C(=O)N[C@@H](CCCNC(=N)N)C(N)=O)NC(=O)[C@H](CC(N)=O)NC(=O)CNC(=O)[C@H]([C@@H](C)CC)NC1=O (some centres unmarked) [Compound 15, Ac-RWIAQALR$1GN$FNAYYARR-NH2] | 
